Experimental data reported in publication PMC6218639, “The calcium sensitizer drug MCI-154 binds the structural C-terminal domain of cardiac troponin C” (Biochemistry and Biophysics Reports, 2018).

Target: T1, cardiac troponin C (cTnC) (Homo sapiens, UniProt P63316, C35S/C84S)
T1 construct: gene TNNC1; cTnC residues 1–161
Assay: 2D 1H, […]-HSQC NMR titration (KD […]), confirmed by ITC
Format: binding

Kd: 500 ± 100 µM
Compound: O=C1CCC(c2ccc(Nc3ccncc3)cc2)=NN1 [MCI-154, 6-(4-(pyridin-4-ylamino)phenyl)-4,5-dihydropyridazin-3(2H)-one]
